In ChEMBL document CHEMBL1201862, “PubChem BioAssay data set” (2004):
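Tested at 5 concentrations; 48 h exposure; 96-well plates; endpoints linearly interpolated, else capped at highest concentration. GI50 is the concentration that inhibits growth by half.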 The source made the active and inactive calls. Cut-off read from the data, not from the text of the source: active = GI50 up to about 1.1 µM and inactive = higher.

Experiments:
Experiment in all cases: NCI anticancer screen, dose series, 48 h
ACHN = test system: ACHN
HCC 2998 = test system: HCC 2998
SF-268 = test system: SF-268
RXF 393 = test system: RXF 393
NCI-H460 = test system: NCI-H460
UACC-62 = test system: UACC-62
CAKI-1 = test system: CAKI-1
MOLT-4 = test system: MOLT-4
HL-60 = test system: HL-60
SK-MEL-5 = test system: SK-MEL-5
HCT-15 = test system: HCT-15
SR = test system: SR
UO-31 = test system: UO-31
RPMI-8226 = test system: RPMI-8226
PC-3 = test system: PC-3
NCI-H23 = test system: NCI-H23
MDA-N = test system: MDA-N
MCF7 = test system: MCF7
HT-29 = test system: HT-29

| SMILES | GI50 (ACHN) | GI50 (HCC 2998) | GI50 (SF-268) | GI50 (RXF 393) | GI50 (NCI-H460) | GI50 (UACC-62) | GI50 (CAKI-1) | GI50 (MOLT-4) | GI50 (HL-60) | GI50 (SK-MEL-5) | GI50 (HCT-15) | GI50 (SR) | GI50 (UO-31) | GI50 (RPMI-8226) | GI50 (PC-3) | GI50 (NCI-H23) | GI50 (MDA-N) | GI50 (MCF7) | GI50 (HT-29) |
| --- | --- | --- | --- | --- | --- | --- | --- | --- | --- | --- | --- | --- | --- | --- | --- | --- | --- | --- | --- |
| COC(=O)c1c(OC(=O)c2ccccc2)noc1CC(=O)OC1C=CCCC1 (centres undefined) | > 100 µM (inactive) | > 100 µM (inactive) | > 100 µM (inactive) | 93.1 µM (inactive) | > 100 µM (inactive) | 28.6 µM (inactive) | > 100 µM (inactive) | 25.5 µM (inactive) | 35.1 µM (inactive) | 27.5 µM (inactive) | 86.1 µM | > 100 µM (inactive) | 66.4 µM (inactive) | > 100 µM (inactive) | – | – | – | – | – |
| COc1cc(OC)c(C2c3cc4c(cc3OC(N3CCOCC3)C2C)OCO4)c(OC)c1 (centres undefined) | 12.3 µM (inactive) | > 100 µM (inactive) | 20.5 µM (inactive) | – | 16.4 µM (inactive) | 29.9 µM (inactive) | – | 21.4 µM (inactive) | – | 47 µM (inactive) | 17.4 µM | 18 µM (inactive) | 16.5 µM (inactive) | 20.2 µM (inactive) | 42.3 µM (inactive) | > 100 µM (inactive) | 72.6 µM (inactive) | 37.8 µM (inactive) | 21.9 µM (inactive) |
| O=C(CC1(O)C(=O)Nc2ccccc21)c1ccc(Cl)c(Cl)c1 (centres undefined) | > 100 µM (inactive) | > 100 µM (inactive) | > 100 µM (inactive) | > 100 µM (inactive) | > 100 µM (inactive) | > 100 µM (inactive) | > 100 µM (inactive) | > 100 µM (inactive) | 22.8 µM (inactive) | > 100 µM (inactive) | > 100 µM | > 100 µM (inactive) | > 100 µM (inactive) | > 100 µM (inactive) | – | > 100 µM (inactive) | – | – | > 100 µM (inactive) |
| Cn1ccnc1S/C(=C\C=C(C#N)C#N)c1ccc(Cl)cc1 | 0.693 µM (active) | 4.92 µM (inactive) | 1.84 µM (inactive) | 1.84 µM (inactive) | 7.33 µM (inactive) | 2.34 µM (inactive) | 1.69 µM (inactive) | 1.18 µM (inactive) | 0.461 µM (active) | 1.13 µM (inactive) | 2.52 µM | 0.143 µM (active) | 2.64 µM (inactive) | – | 1.6 µM (inactive) | 1.61 µM (inactive) | – | 0.698 µM (active) | 1.67 µM (inactive) |
| CC(=O)Oc1ccc2c(C)cc(=O)oc2c1OC(C)=O | 29.1 µM (inactive) | – | 25.3 µM (inactive) | – | – | 49.1 µM (inactive) | – | 34.5 µM (inactive) | – | 37.8 µM (inactive) | 21.1 µM | 17.3 µM (inactive) | 26.5 µM (inactive) | 24.5 µM (inactive) | 34.1 µM (inactive) | 26.9 µM (inactive) | > 100 µM (inactive) | 49.4 µM (inactive) | 29.9 µM (inactive) |
| O=[N+]([O-])c1ccc(/C=N/n2c(S)nnc2CCc2nnc(S)n2/N=C/c2ccc([N+](=O)[O-])o2)o1 | 23.1 µM (inactive) | 17.6 µM (inactive) | 22.3 µM (inactive) | 16.7 µM (inactive) | 84.5 µM (inactive) | – | 20.2 µM (inactive) | 24.8 µM (inactive) | 33.6 µM (inactive) | 17.3 µM (inactive) | 15.9 µM | 28.3 µM (inactive) | 29.3 µM (inactive) | 29.4 µM (inactive) | 82.6 µM (inactive) | 16.7 µM (inactive) | 13.8 µM (inactive) | 18.1 µM (inactive) | 29.3 µM (inactive) |
| COC(=O)Nc1nc2cc(Br)ccc2[nH]1 | 95.5 µM (inactive) | 33.6 µM (inactive) | > 100 µM (inactive) | 25.8 µM (inactive) | 24.9 µM (inactive) | 74.5 µM (inactive) | – | 53.8 µM (inactive) | 13.3 µM (inactive) | 8.75 µM (inactive) | 8.34 µM | 6.44 µM (inactive) | > 100 µM (inactive) | 51.9 µM (inactive) | – | 32.7 µM (inactive) | – | – | 16 µM (inactive) |
| CC1=C(c2cc(C(=O)Nc3cc(C)ccc3C)nc(N)n2)Sc2ccccc2N1 | > 100 µM (inactive) | > 100 µM (inactive) | > 100 µM (inactive) | > 100 µM (inactive) | > 100 µM (inactive) | > 100 µM (inactive) | > 100 µM (inactive) | > 100 µM (inactive) | > 100 µM (inactive) | > 100 µM (inactive) | > 100 µM | 65.8 µM (inactive) | > 100 µM (inactive) | > 100 µM (inactive) | – | > 100 µM (inactive) | – | – | > 100 µM (inactive) |
| COc1c(C(=O)/C(=N/Nc2ccc(C(=O)O)cc2)C(C)=O)c(O)cc2occc12 | > 100 µM (inactive) | > 100 µM (inactive) | > 100 µM (inactive) | 51.2 µM (inactive) | 82 µM (inactive) | > 100 µM (inactive) | > 100 µM (inactive) | > 100 µM (inactive) | 42.8 µM (inactive) | 28.8 µM (inactive) | 93.8 µM | 68.9 µM (inactive) | > 100 µM (inactive) | > 100 µM (inactive) | > 100 µM (inactive) | > 100 µM (inactive) | 35.7 µM (inactive) | > 100 µM (inactive) | > 100 µM (inactive) |
| COC1=CC(=Nc2c(Cl)cc(Cl)cc2OC(=O)c2ccc([N+](=O)[O-])cc2)C=C(OC)C1=O | 10.7 µM (inactive) | 18.2 µM (inactive) | 9.64 µM (inactive) | 12.1 µM (inactive) | 14.4 µM (inactive) | 4.26 µM (inactive) | 16.9 µM (inactive) | 2.87 µM (inactive) | 1.83 µM (inactive) | 7.05 µM (inactive) | 5.97 µM | 3.22 µM (inactive) | 11.9 µM (inactive) | 5.04 µM (inactive) | – | 9.12 µM (inactive) | – | – | 18.4 µM (inactive) |
| Cc1ccc(Nc2ccc(Nc3ccc(C)cc3S(=O)(=O)O)c3c2C(=O)c2ccccc2C3=O)c(S(=O)(=O)O)c1 | > 100 µM (inactive) | > 100 µM (inactive) | > 100 µM (inactive) | > 100 µM (inactive) | > 100 µM (inactive) | > 100 µM (inactive) | > 100 µM (inactive) | > 100 µM (inactive) | > 100 µM (inactive) | > 100 µM (inactive) | > 100 µM | > 100 µM (inactive) | > 100 µM (inactive) | > 100 µM (inactive) | – | – | – | – | – |
| CC1=Cc2cccc(C)c2C(=O)C1=O [O-HIBISCANONE] | 5.12 µM (inactive) | 14.6 µM (inactive) | 11.3 µM (inactive) | 4.66 µM (inactive) | 20.5 µM (inactive) | 5.58 µM (inactive) | 16.5 µM (inactive) | 0.52 µM (active) | 0.481 µM (active) | 2.28 µM (inactive) | 6.11 µM | 0.26 µM (active) | 13.9 µM (inactive) | 1.06 µM (active) | – | 11.1 µM (inactive) | – | – | 2.79 µM (inactive) |
| CC[C@@H]1C[C@H]2CC3c4[nH]c5ccc(O)cc5c4CCN(C2)C31 | > 100 µM (inactive) | > 100 µM (inactive) | > 100 µM (inactive) | 72.3 µM (inactive) | > 100 µM (inactive) | > 100 µM (inactive) | > 100 µM (inactive) | > 100 µM (inactive) | > 100 µM (inactive) | – | > 100 µM | > 100 µM (inactive) | > 100 µM (inactive) | > 100 µM (inactive) | – | > 100 µM (inactive) | – | – | > 100 µM (inactive) |
| CCn1c2c(c3ccccc31)[C@@H](c1ccc(Cl)cc1)CC1C(=O)N(c3ccccc3)C(=O)C21 (some centres undefined) | 58.6 µM (inactive) | 86.9 µM (inactive) | 77.8 µM (inactive) | 38 µM (inactive) | 67.1 µM (inactive) | 51.2 µM (inactive) | > 100 µM (inactive) | 42.7 µM (inactive) | 16.4 µM (inactive) | > 100 µM (inactive) | > 100 µM | 12.8 µM (inactive) | > 100 µM (inactive) | 65 µM (inactive) | – | 95.3 µM (inactive) | – | – | 65.5 µM (inactive) |
| N#Cc1ccccc1NC(=O)C(=O)C1NC(=S)NC1=O (centres undefined) | > 100 µM (inactive) | > 100 µM (inactive) | > 100 µM (inactive) | > 100 µM (inactive) | > 100 µM (inactive) | > 100 µM (inactive) | > 100 µM (inactive) | > 100 µM (inactive) | > 100 µM (inactive) | > 100 µM (inactive) | > 100 µM | > 100 µM (inactive) | – | > 100 µM (inactive) | – | > 100 µM (inactive) | – | – | > 100 µM (inactive) |
| CC(=O)OCC(C)C1=C(OC(C)=O)C(=O)C2(C)C/C=C(/C)CC/C=C(\C)CCC(OC(C)=O)C(C)CCC12 (centres undefined) | 18.2 µM (inactive) | 15.8 µM (inactive) | 15.4 µM (inactive) | – | 3.55 µM (inactive) | 14.4 µM (inactive) | – | 12.9 µM (inactive) | 10.9 µM (inactive) | 15.3 µM (inactive) | 16.9 µM | 17.9 µM (inactive) | 16.8 µM (inactive) | 14.3 µM (inactive) | 14.3 µM (inactive) | – | 17.1 µM (inactive) | 21.3 µM (inactive) | 17.8 µM (inactive) |
| CCOc1ccccc1/N=C(/NC(=O)CC)SC | > 10 µM (inactive) | > 10 µM (inactive) | > 10 µM (inactive) | > 10 µM (inactive) | > 10 µM (inactive) | > 10 µM (inactive) | > 10 µM (inactive) | 68.4 µM (inactive) | > 10 µM (inactive) | > 10 µM (inactive) | 52.5 µM | > 10 µM (inactive) | > 10 µM (inactive) | 95.9 µM (inactive) | – | 70.5 µM (inactive) | – | – | > 10 µM (inactive) |
